# Test results from ChEMBL document CHEMBL5137040, “Identification of non-ATP-competitive α-carboline inhibitors of the anaplastic lymphoma kinase” (Eur J Med Chem, 2022).
# The source made the active and inactive calls. The rule behind the calls is not given here.
# Assays:
# [1] = test system: BaF3; experiment: cells; details: Mus musculus, BaF3, 72 h
# [2] = test system: BaF3; experiment: cells; details: Mus musculus, BaF3, 72 h; remark: listed apart in the source
# [3] = test system: BaF3; experiment: cells; details: Mus musculus, BaF3, 72 h; remark: listed apart in the source
# [4] = biological target: ALK tyrosine kinase receptor (Homo sapiens, UniProt Q9UM73); type: cell-based, Sf9
# [5] = test system: BaF3; experiment: Cytotoxicity against mouse BaF3 cells harboring crizotinib resistant NPM/ALK F1174L mutant assessed as inhibition of cell proliferation incubated for 72 hrs by MTS assay; type: functional, cell-based; details: BaF3, 72 h
# [6] = biological target: Insulin-like growth factor 1 receptor (Homo sapiens) (UniProt P08069); experiment: Inhibition of recombinant IGF1R (unknown origin) at 10 uM by kinase selectivity assay relative to control
# [7] = test system: BaF3; experiment: Cytotoxicity against mouse BaF3 cells harboring crizotinib resistant NPM/ALK I1171N mutant assessed as inhibition of cell proliferation incubated for 72 hrs by MTS assay; type: functional, cell-based; details: BaF3, 72 h
# [8] = test system: HL-60; experiment: Antiproliferative activity against NPM-ALK negative human HL-60 cells assessed as inhibition of cell growth incubated for 72 hrs by MTS assay; type: functional, cell-based; details: HL-60, 72 h
# [9] = test system: KARPAS-299; experiment: Antiproliferative activity against NPM-ALK positive human KARPAS-299 cells assessed as inhibition of cell growth incubated for 72 hrs by MTS assay; type: functional, cell-based; details: KARPAS-299, 72 h
# [10] = test system: BaF3; experiment: Cytotoxicity against mouse BaF3 cells harboring crizotinib resistant NPM/ALK C1156Y mutant assessed as inhibition of cell proliferation incubated for 72 hrs by MTS assay; type: functional, cell-based; details: BaF3, 72 h
# [11] = test system: KARPAS-299; experiment: Antitumor activity against human KARPAS-299 cells xenografted in nude mouse assessed as tumor growth inhibition at 100 mg/kg, po administered twice daily for 24 days; type: functional; parameters: scale not given: the % may be the effect or the level left; details: time 24 day
# [12] = biological target: Fibroblast growth factor receptor 1 (Homo sapiens) (UniProt P11362); experiment: Inhibition of recombinant FGFR1 (unknown origin) at 10 uM by kinase selectivity assay relative to control
# [13] = biological target: Vascular endothelial growth factor receptor 2 (Homo sapiens) (UniProt P35968); experiment: Inhibition of recombinant VEGFR2 (unknown origin) at 10 uM by kinase selectivity assay relative to control
# [14] = test system: SUPM2; experiment: Antiproliferative activity against human SUPM2 cells harboring crizotinib resistant ALK S1206C mutant assessed as inhibition of cell growth at 0.1 to 10 uM incubated for 72 hrs by MTS assay; type: functional, cell-based; details: dose 0.1-10 µM
# [15] = Antiproliferative activity against NPM-ALK positive human SUPM2 cells assessed as inhibition of cell growth incubated for 72 hrs by MTS assay; type: functional, cell-based; details: SUP-M2, 72 h
# [16] = biological target: Epidermal growth factor receptor (Homo sapiens) (UniProt P00533); experiment: Inhibition of recombinant EGFR (unknown origin) at 10 uM by kinase selectivity assay relative to control
# [17] = test system: SUPM2; experiment: Antiproliferative activity against human SUPM2 cells harboring crizotinib resistant ALK […] mutant assessed as inhibition of cell growth at 0.1 to 10 uM incubated for 72 hrs by MTS assay; type: functional, cell-based; details: dose 0.1-10 µM
# [18] = Tmax in po dosed nude mouse; type: ADME, organism-based; details: in vivo
# [19] = test system: SU-DHL-1; experiment: Antiproliferative activity against NPM-ALK positive human SU-DHL-1 cells assessed as inhibition of cell growth incubated for 72 hrs by MTS assay; type: functional, cell-based; details: SU-DHL-1, 72 h
# [20] = test system: KARPAS-299; experiment: Antiproliferative activity against human KARPAS-299 cells harboring crizotinib resistant ALK L1196Q mutant assessed as inhibition of cell growth at 0.1 to 10 uM incubated for 72 hrs by MTS assay; type: functional, cell-based; details: dose 0.1-10 µM
# [21] = test system: SUPM2; type: functional, cell-based; details: Homo sapiens, dose 0.1-10 µM, time 72.0 hrs
# [22] = test system: KARPAS-299; experiment: Antitumor activity against crizotinib-resistant human KARPAS-299 cells harboring L1196Q mutant xenografted in nude mouse assessed as tumor growth inhibition at 100 mg/kg, po administered twice daily for 24 days; type: functional, organism-based; details: time 24.0 day
# [23] = Half-life in po dosed nude mouse; type: ADME, organism-based; details: in vivo
# ALK tyrosine kinase receptor, sequence (Q9UM73 whole entry): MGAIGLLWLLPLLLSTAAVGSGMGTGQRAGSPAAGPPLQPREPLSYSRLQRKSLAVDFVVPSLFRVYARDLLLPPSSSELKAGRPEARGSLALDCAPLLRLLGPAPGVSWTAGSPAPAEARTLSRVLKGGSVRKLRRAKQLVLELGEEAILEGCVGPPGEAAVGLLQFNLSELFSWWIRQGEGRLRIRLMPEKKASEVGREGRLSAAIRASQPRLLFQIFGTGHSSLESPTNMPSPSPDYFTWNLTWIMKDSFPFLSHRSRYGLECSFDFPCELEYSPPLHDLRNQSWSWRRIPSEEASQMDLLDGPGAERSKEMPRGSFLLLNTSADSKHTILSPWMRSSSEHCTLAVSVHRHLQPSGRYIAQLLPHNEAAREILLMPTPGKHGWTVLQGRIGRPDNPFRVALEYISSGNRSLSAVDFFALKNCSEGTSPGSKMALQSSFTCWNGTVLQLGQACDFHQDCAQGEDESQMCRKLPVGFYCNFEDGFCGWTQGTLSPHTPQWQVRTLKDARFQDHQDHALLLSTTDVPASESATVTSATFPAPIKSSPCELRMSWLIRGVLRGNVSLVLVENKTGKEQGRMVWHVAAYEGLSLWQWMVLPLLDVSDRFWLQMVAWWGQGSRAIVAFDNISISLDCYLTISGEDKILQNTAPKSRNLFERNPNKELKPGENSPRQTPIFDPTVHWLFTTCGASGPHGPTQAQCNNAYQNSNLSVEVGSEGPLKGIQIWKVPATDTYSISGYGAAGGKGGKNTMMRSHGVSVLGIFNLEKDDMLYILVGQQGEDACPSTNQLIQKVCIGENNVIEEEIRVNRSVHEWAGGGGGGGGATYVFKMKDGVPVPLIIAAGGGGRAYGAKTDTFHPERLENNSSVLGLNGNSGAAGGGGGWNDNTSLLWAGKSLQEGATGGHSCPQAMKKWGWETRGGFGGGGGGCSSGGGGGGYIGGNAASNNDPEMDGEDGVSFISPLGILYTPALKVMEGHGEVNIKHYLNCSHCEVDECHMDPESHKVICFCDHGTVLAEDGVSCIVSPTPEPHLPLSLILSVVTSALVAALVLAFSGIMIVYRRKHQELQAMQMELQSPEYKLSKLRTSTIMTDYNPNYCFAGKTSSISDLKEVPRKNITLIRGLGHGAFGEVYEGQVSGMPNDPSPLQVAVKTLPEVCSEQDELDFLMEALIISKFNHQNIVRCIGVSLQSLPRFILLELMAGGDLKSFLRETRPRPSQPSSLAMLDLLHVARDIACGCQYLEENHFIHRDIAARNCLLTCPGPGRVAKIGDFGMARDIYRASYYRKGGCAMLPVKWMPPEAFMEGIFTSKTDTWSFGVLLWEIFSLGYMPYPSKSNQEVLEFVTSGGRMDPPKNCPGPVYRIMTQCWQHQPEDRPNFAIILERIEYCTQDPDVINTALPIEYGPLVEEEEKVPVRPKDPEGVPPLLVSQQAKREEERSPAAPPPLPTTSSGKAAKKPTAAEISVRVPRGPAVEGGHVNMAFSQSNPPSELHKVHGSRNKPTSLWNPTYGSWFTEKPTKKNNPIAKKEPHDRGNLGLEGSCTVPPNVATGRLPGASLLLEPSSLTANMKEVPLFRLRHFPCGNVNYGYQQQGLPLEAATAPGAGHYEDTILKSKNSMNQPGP
# Insulin-like growth factor 1 receptor (Homo sapiens), sequence (P08069 31-736 limits assumed): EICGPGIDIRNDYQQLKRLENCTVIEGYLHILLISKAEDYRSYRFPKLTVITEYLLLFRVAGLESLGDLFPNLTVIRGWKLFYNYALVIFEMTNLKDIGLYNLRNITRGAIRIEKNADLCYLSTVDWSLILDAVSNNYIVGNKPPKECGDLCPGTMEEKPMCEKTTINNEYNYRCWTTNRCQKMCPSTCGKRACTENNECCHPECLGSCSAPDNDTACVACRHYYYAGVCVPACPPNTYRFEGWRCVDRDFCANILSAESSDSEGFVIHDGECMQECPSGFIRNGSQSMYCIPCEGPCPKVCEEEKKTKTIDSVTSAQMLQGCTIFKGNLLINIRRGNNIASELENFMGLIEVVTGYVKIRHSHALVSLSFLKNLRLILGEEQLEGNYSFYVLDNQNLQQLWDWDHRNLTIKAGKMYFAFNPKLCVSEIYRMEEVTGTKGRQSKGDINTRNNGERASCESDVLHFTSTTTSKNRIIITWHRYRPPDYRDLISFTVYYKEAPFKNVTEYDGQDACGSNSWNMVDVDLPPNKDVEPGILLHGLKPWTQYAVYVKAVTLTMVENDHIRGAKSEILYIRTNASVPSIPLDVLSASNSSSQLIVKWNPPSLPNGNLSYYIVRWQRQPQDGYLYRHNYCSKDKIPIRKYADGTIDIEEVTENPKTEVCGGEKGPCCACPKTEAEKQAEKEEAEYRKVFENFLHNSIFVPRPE
# Insulin-like growth factor 1 receptor (Homo sapiens), sequence (P08069 741-1367 limits assumed): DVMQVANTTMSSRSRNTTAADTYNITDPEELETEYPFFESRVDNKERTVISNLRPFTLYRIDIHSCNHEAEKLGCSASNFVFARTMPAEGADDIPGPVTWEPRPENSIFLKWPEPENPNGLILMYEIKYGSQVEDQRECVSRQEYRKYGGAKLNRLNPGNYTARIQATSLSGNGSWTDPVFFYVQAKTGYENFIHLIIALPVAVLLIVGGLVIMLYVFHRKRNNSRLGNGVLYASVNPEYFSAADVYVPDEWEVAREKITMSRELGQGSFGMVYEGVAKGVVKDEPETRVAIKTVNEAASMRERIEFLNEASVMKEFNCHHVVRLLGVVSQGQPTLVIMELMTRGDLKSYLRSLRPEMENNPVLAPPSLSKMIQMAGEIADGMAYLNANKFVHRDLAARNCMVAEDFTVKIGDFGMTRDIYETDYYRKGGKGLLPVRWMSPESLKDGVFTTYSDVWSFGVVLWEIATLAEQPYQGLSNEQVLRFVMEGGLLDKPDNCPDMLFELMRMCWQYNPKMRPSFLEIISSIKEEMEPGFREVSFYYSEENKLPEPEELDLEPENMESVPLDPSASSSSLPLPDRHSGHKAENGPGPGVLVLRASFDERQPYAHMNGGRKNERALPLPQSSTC
# Vascular endothelial growth factor receptor 2 (Homo sapiens), sequence (P35968 whole entry): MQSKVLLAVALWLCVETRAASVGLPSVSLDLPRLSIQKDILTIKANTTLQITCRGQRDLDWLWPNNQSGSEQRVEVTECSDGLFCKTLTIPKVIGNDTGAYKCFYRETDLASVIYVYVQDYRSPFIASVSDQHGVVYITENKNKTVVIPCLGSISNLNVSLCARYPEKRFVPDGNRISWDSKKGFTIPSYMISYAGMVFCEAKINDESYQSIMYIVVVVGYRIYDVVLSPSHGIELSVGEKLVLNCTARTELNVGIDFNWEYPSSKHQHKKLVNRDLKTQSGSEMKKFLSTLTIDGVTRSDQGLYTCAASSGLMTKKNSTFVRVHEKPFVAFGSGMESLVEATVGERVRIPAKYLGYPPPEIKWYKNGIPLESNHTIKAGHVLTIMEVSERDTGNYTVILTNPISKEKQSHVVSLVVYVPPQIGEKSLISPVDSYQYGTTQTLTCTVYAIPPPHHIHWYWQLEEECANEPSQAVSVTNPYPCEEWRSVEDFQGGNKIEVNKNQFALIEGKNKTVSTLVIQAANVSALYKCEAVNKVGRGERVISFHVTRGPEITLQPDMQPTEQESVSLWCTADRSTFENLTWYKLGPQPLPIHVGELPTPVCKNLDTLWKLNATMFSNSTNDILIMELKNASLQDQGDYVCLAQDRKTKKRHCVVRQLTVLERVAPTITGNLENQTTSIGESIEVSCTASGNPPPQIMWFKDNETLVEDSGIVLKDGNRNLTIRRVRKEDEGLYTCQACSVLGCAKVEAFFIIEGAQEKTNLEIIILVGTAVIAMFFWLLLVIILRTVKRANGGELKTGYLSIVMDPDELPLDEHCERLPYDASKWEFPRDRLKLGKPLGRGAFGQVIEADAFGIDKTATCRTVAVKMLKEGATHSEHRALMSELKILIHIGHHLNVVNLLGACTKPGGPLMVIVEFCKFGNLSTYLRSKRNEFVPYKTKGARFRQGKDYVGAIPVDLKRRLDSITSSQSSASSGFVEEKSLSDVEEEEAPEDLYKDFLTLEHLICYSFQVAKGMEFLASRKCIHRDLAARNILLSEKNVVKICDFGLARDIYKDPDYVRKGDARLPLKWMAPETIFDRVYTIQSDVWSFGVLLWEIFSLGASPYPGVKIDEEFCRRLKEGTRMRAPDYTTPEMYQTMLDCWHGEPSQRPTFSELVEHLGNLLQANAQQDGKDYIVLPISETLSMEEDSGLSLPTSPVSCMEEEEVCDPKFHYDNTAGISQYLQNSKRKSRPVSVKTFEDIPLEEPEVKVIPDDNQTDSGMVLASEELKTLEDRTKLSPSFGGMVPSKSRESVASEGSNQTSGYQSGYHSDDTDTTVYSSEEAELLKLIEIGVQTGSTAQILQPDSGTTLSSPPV
# Fibroblast growth factor receptor 1 (Homo sapiens), sequence (P11362 22-822 limits assumed): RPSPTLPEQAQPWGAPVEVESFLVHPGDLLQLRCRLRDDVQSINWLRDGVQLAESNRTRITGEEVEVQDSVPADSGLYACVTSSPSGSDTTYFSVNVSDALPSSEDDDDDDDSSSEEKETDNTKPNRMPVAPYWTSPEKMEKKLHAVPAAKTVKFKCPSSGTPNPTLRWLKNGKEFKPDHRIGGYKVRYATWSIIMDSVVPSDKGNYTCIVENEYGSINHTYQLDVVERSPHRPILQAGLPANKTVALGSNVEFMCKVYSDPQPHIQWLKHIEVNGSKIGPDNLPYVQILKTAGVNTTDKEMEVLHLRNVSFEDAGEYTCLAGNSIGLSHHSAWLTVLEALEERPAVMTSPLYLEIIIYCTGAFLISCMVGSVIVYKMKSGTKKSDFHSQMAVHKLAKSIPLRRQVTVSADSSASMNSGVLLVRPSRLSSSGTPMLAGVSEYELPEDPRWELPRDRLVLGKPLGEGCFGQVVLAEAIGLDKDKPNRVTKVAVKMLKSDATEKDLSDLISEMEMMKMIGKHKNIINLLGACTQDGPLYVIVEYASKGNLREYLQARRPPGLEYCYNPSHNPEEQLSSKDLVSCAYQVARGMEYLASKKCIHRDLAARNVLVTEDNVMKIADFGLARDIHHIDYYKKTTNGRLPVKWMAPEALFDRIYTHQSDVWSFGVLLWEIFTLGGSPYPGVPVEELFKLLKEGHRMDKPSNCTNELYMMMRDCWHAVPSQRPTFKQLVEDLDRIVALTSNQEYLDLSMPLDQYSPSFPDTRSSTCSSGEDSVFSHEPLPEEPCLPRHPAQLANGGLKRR
SMILES,IC50 [1] [µM],IC50 [2] [µM],IC50 [3] [µM],IC50 [4] [µM],also measured
CN1CCN(c2ccc(-c3ccc4[nH]c5nccc(/C=C/c6ccccc6)c5c4c3)cc2)CC1,1.6,1.5,1.1,–,–
CN1CCN(c2ccc(-c3ccc4[nH]c5nccc(N6CCC(Cc7ccccc7)CC6)c5c4c3)cc2)CC1,1.2,0.6,3.3,–,–
CN1CCN(c2ccc(-c3ccc4[nH]c5nccc(-c6cccc(-c7ccccc7)c6)c5c4c3)cc2)CC1,1.8,1.9,2.7,–,–
CN1CCN(c2ccc(-c3ccc4[nH]c5nccc(-c6ccc(C(=O)c7ccccc7)cc6)c5c4c3)cc2)CC1,6.1,1.7,18,–,–
Cc1cc(OCc2ccc(-c3ccnc4[nH]c5ccc(-c6ccc(N7CCN(C)CC7)cc6)cc5c34)cc2)ccc1Cl,> 25,> 25,> 25,–,–
CCN(CC)CCSCC(=O)c1ccc2[nH]c3nccc(Cl)c3c2c1,–,–,–,> 10,–
CN1CCN(c2ccc(-c3ccc4[nH]c5nccc(-c6ccc(-c7ccccc7)cc6)c5c4c3)cc2)CC1,4.3,2.8,> 25,–,–
CN(C)/C=C/C(=O)c1ccc2[nH]c3nccc(-c4ccc(Cc5ccccc5)cc4)c3c2c1,–,–,–,> 10,–
c1ccc(Cc2ccc(-c3ccnc4[nH]c5ccc(-c6ccc(N7CCN(Cc8cccnc8)CC7)cc6)cc5c34)cc2)cc1,–,–,–,> 10,–
C[N+]1(C)CCN(c2ccc(-c3ccc4[nH]c5nccc(C#Cc6ccccc6C(F)(F)F)c5c4c3)cc2)CC1,2.6,2.1,13,–,–
CN1CCN(c2ccc(-c3ccc4[nH]c5nccc(/C=C/c6cccc(F)c6)c5c4c3)cc2)CC1,2.7,1.8,9.5,–,–
COc1cc(-c2ccnc3[nH]c4ccc(-c5ccc(N6CCN(C)CC6)cc5)cc4c23)c(OC)cc1Cc1ccccc1,0.8,0.5,0.8,–,–
COC(=O)c1cc(-c2ccnc3[nH]c4ccc(-c5ccc(N6CCN(C)CC6)cc5)cc4c23)ccc1Cc1ccccc1,–,–,–,> 10,–
COc1cc(C(O)c2ccccc2)c(O)cc1-c1ccnc2[nH]c3ccc(-c4ccc(N5CCN(C)CC5)cc4)cc3c12 (stereo not given),–,–,–,> 10,–
CN1CCN(c2ccc(-c3ccc4[nH]c5nccc(/C=C/c6ccccc6F)c5c4c3)cc2)CC1,1.9,1.6,5.1,–,–
O=[N+]([O-])c1ccccc1Nc1ccnc2[nH]c3ccccc3c12,–,–,–,> 10,–
CN1CCN(c2ccc(-c3ccc4[nH]c5nccc(-c6ccc(Cc7ccccc7)cc6)c5c4c3)cc2)CC1,–,–,8.7,–,IC50 [5]: 2.4 µM; inhibition [6]: > 90%; IC50 [7]: 1.9 µM; IC50 [8]: 17 µM; IC50 [9]: 0.7 µM; IC50 [10]: 1.3 µM; Activity [11]: 80%; inhibition [12]: > 90%; inhibition [13]: > 90%; Activity [14]: Active; IC50 [15]: 1.1 µM; inhibition [16]: > 90%; Activity [17]: Active; Tmax [18]: 4 h; IC50 [19]: 0.8 µM; Activity [20]: Active; Activity [21]: Active; Activity [22]: Active; half-life [23]: < 24 h
CN1CCN(c2ccc(-c3ccc4[nH]c5nccc(-c6ccc(-c7cccc8ccccc78)cc6)c5c4c3)cc2)CC1,0.4,0.5,1,–,–
CN1CCN(c2ccc(-c3ccc4[nH]c5nccc(/C=C/c6ccccc6C(F)(F)F)c5c4c3)cc2)CC1,1.5,0.9,1.7,–,–
CN1CCN(c2ccc(-c3ccc4[nH]c5nccc(C#Cc6ccccc6)c5c4c3)cc2)CC1,3.7,2.7,4.4,–,–
COc1ccc(-c2ccnc3[nH]c4ccccc4c23)cc1,–,–,–,> 10,–
C#Cc1ccnc2[nH]c3ccc(-c4ccc(N5CCN(C)CC5)cc4)cc3c12,–,–,–,> 10,–
COc1ccc(/C=C/c2ccnc3[nH]c4ccc(-c5ccc(N6CCN(C)CC6)cc5)cc4c23)cc1,0.6,1.6,4.1,–,–
